In US20150141506A1, “INDANE DIMERS FOR USE IN THE TREATMENT OF AUTOIMMUNE INFLAMMATORY DISEASE” (Venantius Limited, priority 2012, published 2015):
In brackets after ≈: the same amount, converted by molar mass. Entries after “also recorded” stand apart in the source; their conditions may differ. Where two headings read alike, the source gives them in different places.

Columns and labels:
[1] = tested on: 5% DSS colitis in BALB/c mice; assay: Acute murine 5% DSS colitis model, Experiment 1; type: in vivo
Excerpt: The study is widely used as a model for studying the pathogenesis of UC and also for screening new therapeutic interventions for the treatment of UC.
In these studies, an acute colitis model was used, with 5% DSS administered in the drinking water of BALB/c mice. This dosage regime induces severe acute colitis, by days 7-8 mice had overt rectal bleeding and marked weight loss; unless sacrificed beforehand, all mice would have died by days 10-12.
Specific Pathogen-Free BALB/c mice, 6-8 weeks of age, were obtained from a commercial supplier (Harlan UK). Mice were fed irradiated diet and housed in individually ventilated cages (Tecniplast UK) under positive pressure.
DSS (5%) was dissolved in drinking water. Compounds were administered orally at a dose of 10 mg/kg or 30 mg/kg on days 0-7, and mice were culled on day 8 or day 9, depending on the severity of the disease. The mice were checked each day for morbidity and the weight of individual mice was recorded. Induction of colitis was determined upon autopsy, length of colon and histology. Colons were recovered and stored at −20° C. for immunological analysis. All of the compounds and experimental groups are randomly alphabetically labelled. Throughout experiments all data recording was performed in a blind manner. The codes on boxes/groups were not broken until after the data was analysed i.e. boxes labelled A, B, C etc were identified as untreated, DSS-treated, or DSS+compound-treated.
To quantify the extent of colitis, a disease activity index (DAI) was determined based on weight loss, faecal blood and stool consistency. A score was given for each parameter, with the sum of the scores used as the DAI. For each treatment group n=8.
All compounds were prepared for oral gavage (0.1 mL per os (p.o.) per 10 g body weight) as a suspension in 0.5% carboxymethyl cellulose/2% Tween 80, at a dose of 3-30 mg/Kg.

[2] = Partition coefficient (Log10 POW) by HPLC method; type: physicochemical; details: reverse phase C18 HPLC; for Log10 POW, Acid: acidic pH; for Log10 POW, Basic: alkaline pH; for Log10 POW, Neutral: neutral pH
[3] = Solubility in Milli-RO water and pH buffers; type: physicochemical
Method: The sodium salt, potassium salt, calcium salt, α-methylbenzylamine salt and N-Methyl-(D)-Glucamine salt were synthesised.
The solubility of the four compounds were determined: […]

[4] = tested on: IL2 release from Jurkat cells; assay: Effect of compounds on IL-2 secretion in T lymphocytes (Jurkat 6.1, anti-CD3/anti-CD28 stimulated, ELISA); type: cell-based; details: 30 min pre-treatment, 24 h, DMSO control 320.67 (plate 2), 338.25 (plate 3)
Method: The T cell line Jurkat 6.1 (ATCC) was used. Cells were pre-treated for 30 min with 1 μM or 10 μM of the respective compound and then stimulated with plate-bound anti-CD3 (BD Pharmingen) and anti-CD28 (AnCell). DMSO was used as vehicle control. […] After 24 hs the supernatant was collected and IL-2 secretion was measured by ELISA.
Compounds were prepared by dissolution in DMSO to yield final concentrations of 1 and 10 μg/ml

[5] = Plasma half-life in the rat; type: in vivo; details: read-out: plasma half-life (t1/2) (converted)
[6] = tested on: chronic colitis in IL10-/- BALB/c strain mice; assay: Chronic IL10-/- colitis model; type: in vivo; details: MWF
Method: FIG. 15: Is a group showing weight loss in IL10^−−/−− mice treated with vehicle or compound 6. Mice were administered compound 6 (300 mg/kg/week) or vehicle orally on a Monday/Wednesday/Friday (MWF) dosing schedule. Mice were ˜4 weeks of age at start of experiment and were treated for 9 weeks. Mice were weighed weekly and data are presented as Mean±SEM from 9-12 mice per group. Mice were monitored for overt disease, rectal prolapse, and moribund animals were humanely killed;
Mice with a deletion in the IL10^−−/−− gene spontaneously develop chronic colitis, with the age of onset and the severity of the disease being dependent on background mouse strain and the conditions in which the animals are housed. The onset of colitis in IL10^−−/−− mice housed under the conditions used in this study was also strain dependent, with an earlier onset and greater severity, in terms of mortality, in BALB/c strain mice relative to C57BL/6 strain animals. In this experiment, animals received oral treatment on a MWF regime over 9 weeks. Initially, both groups of mice progressively gain weight (FIG. 15). […] By week 9 animals had marked weight loss, with one moribund animal humanely killed on day 60 in each group. As other mice were losing weight and developing clinical symptoms of disease, both groups were culled at week 9 (day 63) and analysed.

[7] = tested on: 5% DSS colitis in BDF 1 mice; assay: 5% DSS murine colitis, Experiment 2 (Method 2); type: in vivo; details: day 7, 10 ml/kg oral gavage daily day 0-6, 5-ASA 100 mg/kg; for DAI versus vehicle: 31 at 2 mg/ml, 47 at 4 mg/ml
Excerpt: A total of 90 BDF 1 (H. Pylori-free, murine norovirus-free) male mice (Harlan Laboratories, UK) were used in the study. Animals were 8-10 weeks old on supply and used at 10-12 weeks of age. All mice were held in individually ventilated cages (IVCs) in an SPF (Specific Pathogen Free) barrier unit. The animals were identified by numbered cages and by ear punches.
Mice were randomised into study groups. All the mice in any one cage received the same treatment and were ear punched for identification purposes. Daily body weight measurements were used to calculate the volume of test item or vehicle administered in the applicable groups.
DSS (MP Biomedicals 0216011090, lot# M2709) was prepared as a 5% (w/v) solution in the drinking water and made fresh daily on days 0 to 6 inclusive. DSS was administered from day 0 to day 7.
Test items were stored at −20° C. until the initiation of the study. Each test item was formulated as a homogenous suspension in 0.5% carboxymethyl cellulose (CMC, Sigma C4888) in sterile water (Sigma W3500, lot# RNBC1419), using an Ultraturax homogeniser, on study day −1. Compound 31 was formulated at 2 mg/ml and 47 was formulated at 4 mg/ml. After formulation the test item and the vehicle stocks anonymised with a letter code. All solutions were stored at 4° C. during the study, with 3.8 ml of each suspension being dispensed daily. Test items were administered by oral gavage, daily at 09.00 hrs, at 10 ml/kg, from study day 0 to study day 6.
5-ASA (5-Aminosalicylic acid, Sigma A3537, lot#051M1878V) was aliquoted into pre-weighed amounts between 71 and 84 mg. Like test item suspensions, these aliquots were anonymised by a letter code. […]
Any animal was culled if the weight loss was greater than 20%. Animal well-being was monitored daily. Once daily from day 0 until the end of the study, all mice were weighed and assessed for stool consistency, and the presence of overt blood in the stool or around the anus according to the criteria in 2.1 […]

[8] = day 7, 10 mg/kg daily for 7 days, vehicle 9.3±0.51
[9] = Milli-RO water, water, read-out: solubility, Milli-RO H20
[10] = pH 4.0 buffer, pH 4, aqueous buffer, read-out: solubility, pH 4.0 Buffer
[11] = pH 7.0 buffer, pH 7, aqueous buffer, read-out: solubility, pH 7.0 Buffer
[12] = pH 9.0 buffer, pH 9, aqueous buffer, read-out: solubility, pH 9.0 Buffer
[13] = 3, 10 and 30 mg/Kg oral daily for 7 days

O=C(O)c1ccc(C[C@]2(C3=Cc4ccccc4C3)Cc3ccccc3[C@H]2O)cc1 [Compound 5, 4-(((1S,2R)-1-hydroxy-2,3-dihydro-1H,1′H-2,2′-biinden-2-yl)methyl)benzoic acid]
activity in 5% DSS murine colitis (DAI), in words ([1]; 30 mg/kg p.o. daily for 7 days): highly active
disease activity index (DAI) [1, 8]: no significant (P>0.05) effect
disease activity index (DAI) ([1]; day 7, 30 mg/kg p.o. daily for 7 days, vehicle 9.0±0.53): 3.2±0.73
Log10 POW, Acid [2]: 3.9
Log10 POW, Basic [2]: 3.7
Log10 POW, Neutral [2]: 3.7
solubility [3, 9]: 1.38 µg/mL (≈ 3.61 µM)
aqueous solubility, in words ([3]; free acid enantiomers): limited aqueous solubility
solubility [3, 10]: 0.33 µg/mL (≈ 0.863 µM)
solubility [3, 11]: 320 µg/mL (≈ 837 µM)
solubility [3, 12]: 370 µg/mL (≈ 966 µM)
IL-2 production, absolute values ([4]; compound 1 uM): 127.29 pg/mL
IL-2 production, absolute values ([4]; compound 10 uM): 134.14 pg/mL

O=C(O)c1ccc(C[C@@]2(C3=Cc4ccccc4C3)Cc3ccccc3[C@H]2O)cc1 [Compound 6]
colon pathology (histology score) relative to vehicle ([1]; 10 mg/Kg): highly statistically significant reduction
colon pathology (histology score) relative to vehicle ([1]; 30 mg/Kg): highly statistically significant reduction
overt reactions in mice [1, 13]: caused no overt reactions
severity of colitis, multiple parameters of disease [1, 13]: ameliorated the severity of colitis; also recorded: dose-dependent
DAI on the day of autopsy versus vehicle controls ([1]; 3-30 mg/kg, each dose level): significantly (P<0.05-P<0.01) lower
potency compared among the four enantiomers, in words ([1]; 30 and 10 mg/kg): most potent of the four enantiomers
efficacy relative to prednisolone at 5 mg/Kg ([1]; compound 6 at 30 mg/Kg): comparable, or better; also recorded: comparable or better
inhibition of colon shortening versus vehicle controls ([1]; day 7, 3 mg/kg): did not have a significant effect
inhibition of colon shortening versus vehicle controls ([1]; day 7, 10 mg/kg): did have a significant effect
disease activity index (DAI) [1, 8]: 3.3±0.52
colon cytokine levels (IL1β, TNFα, IL6) ([1]; day 7, 30 mg/kg): significant (P<0.05, 30 mg/kg) and dose-dependant reduction
inhibition of colon shortening versus vehicle controls ([1]; day 7, 30 mg/kg): did have a significant effect; also recorded: significantly better than Prednisolone
reduction of colonic myeloperoxidase (MPO) activity ([1]; day 7, 30 mg/kg): 63%
half-life [5]: 3 h
Log10 POW, Acid [2]: 2.6
Log10 POW, Basic [2]: 4.3
Log10 POW, Neutral [2]: 3.5
survival by Kaplan-Meier analysis versus vehicle ([6]; 300 mg/kg/week oral, 9 weeks): no statistical difference in survival
weight loss and deaths from colitis relative to vehicle, in words ([6]; 300 mg/kg/week oral, 9 weeks): delayed weight loss and reduced deaths from colitis
mortalities ([6]; 300 mg/kg/week oral, 9 weeks, vehicle 25%): 9.2%
weight gain maintained until ([6]; 300 mg/kg/week oral, vehicle stopped gaining from week 5): 8 week
Serum Amyloid A (SAA) levels relative to vehicle ([6]; week 9, 300 mg/kg/week oral): significantly (P<0.05; Student's t-test) reduced
extent of colon pathology (histology score) relative to vehicle ([6]; week 9, 300 mg/kg/week oral): significantly reduced
solubility [3, 9]: > 60000 µg/mL
solubility [3, 10]: 0.5 µg/mL (≈ 1.31 µM)
solubility [3, 11]: > 60000 µg/mL
solubility [3, 12]: > 3000 µg/mL

NCC(=O)O[C@@H]1c2ccccc2C[C@@]1(Cc1ccc(C(=O)O)cc1)C1=Cc2ccccc2C1 [Compound 31, 4-{[(1′S,2′S)-1′-(glycyloxy)-1′,3′-dihydro-1H,2′H-2,2′-biinden-2′-yl]methyl}benzoic acid]
DAI versus vehicle [7]: reduced DAI comparable or equal to 5ASA
IL-2 production, absolute values ([4]; compound 1 uM): 233.38 pg/mL
IL-2 production, absolute values ([4]; compound 10 uM): 225.63 pg/mL

O=C(Nc1ccc(O)c(C(=O)O)c1)c1ccc(C[C@@]2(C3=Cc4ccccc4C3)Cc3ccccc3[C@H]2O)cc1 [Compound 47, 2-hydroxy-5-(4-(((1S,2S)-1-hydroxy-2,3-dihydro-1H,1′H-[2,2′-biinden]-2-yl)methyl)benzamido)benzoic acid]
DAI versus vehicle [7]: reduced DAI comparable or equal to 5ASA
loss of body weight versus vehicle control ([7]; 47 formulated at 4 mg/ml): does not result in an increase in loss of body weight
IL-2 production, absolute values ([4]; compound 1 uM): 99.64 pg/mL
IL-2 production, absolute values ([4]; compound 10 uM): 98.79 pg/mL
